Experimental data: patent US5788964A, “Method for sensitization of cancer cells for killer cell mediated lysis” (Orion-Yhtyma Oy, priority 1996, dated 1998)

What was measured:
[1] = tested on: Nb2 rat lymphoma; assay: Target cell destruction by cytolytic lymphocytes (CTL) generated in mixed cultures (51Cr release); conditions: for target cell lysis, effector cells pretreated (in words): CTL effectors pretreated; for lysis of treated targets by treated effectors (in words) / target cell lysis, target cells treated (in words): CTL effectors; for lysis of treated targets by treated effectors (in words): both treated; for target cell lysis, target cells treated (in words): target cells treated for 4 h prior to the cytotoxic reaction
Procedure: (§1) Target cells were labeled with ^51 Cr for 1 hr, then washed. The specific ^51 Cr release was determined after 4 hours of incubation at 37° C., 5% CO2 (target/effector 1:25).
Target cells: Nb2 rat lymphoma
Effector cells: Cytotoxic Tlymphocytes (CTL) generated in mixed cultures,
Responder: Spleen cells of Fischer rats. Stimulator: Nb2 cells (thymic

[2] = tested on: Yac1 murine lymphoma; assay: NK cell mediated cytotoxicity (51Cr release); conditions: for target cell lysis, effector cells pretreated (in words): NK effectors pretreated; for lysis of treated targets by treated effectors (in words) / target cell lysis, target cells treated (in words): NK effectors; for lysis of treated targets by treated effectors (in words): both treated; for target cell lysis, target cells treated (in words): target cells treated for 4 h prior to the cytotoxic reaction
Procedure: as §1
Target cells: Yac1 murine lymphoma
Effector cells: Spleen lymphocytes of female Fishner rats

[3] = tested on: P815 tumor cells; assay: Winn assay, pretreated P815 cells mixed with LAK cells 1:25 (Example 2); assay type: in vivo, DBA/2 mice; conditions: target:effector 1:25, s.c., groups of 4
Procedure: (§2) For the generation of LAK cells, 2×10^6 /ml of spleen cells from female DBA/N2 mice were cultured for 5 days in RPMI-1640 medium supplemented with 10%FCS, 5×10^-5 M 2-mercaptoethanol and 500 U/mI of human recombinant interleukin-2 at 370C in humidified air containing 5% CO2.

[4] = tested on: P815 mastocytoma; assay: Immunotherapy of P815 mastocytoma, drug by gavage and LAK cells (Example 6); assay type: in vivo, DBA/2 mice; conditions: 10 mg/kg/day by gavage, with or without LAK as labelled
Procedure: DBA/2 female mice were injected s. c. with 10^4 P815 tumor cells. […] Two days later 25×10^4 LAK cells were given i.p., LAK was injected three times more, four days apart. Drug treatment was maintained from day 14 until day 30.

[5] = tested on: P815 cells; assay: 51Cr assay, killing of P815 cells by LAK cells from DBA/N2 mice (Example 2); conditions: Mus musculus, P815, 4 h, read-out: P815 cells killed by LAK cells
Procedure: as §2

[6] = tested on: P815 tumor; assay: P815 tumor growth, drug in drinking water with or without LAK (Example 3); assay type: in vivo, mice; conditions: drinking water TX 100 μg/ml, TO 400 μg/ml; LAK 1:25 then weekly for 3 weeks
[7] = tested on: P815 (NK resistant murine mastocytoma); assay: LAK cell mediated cytotoxicity (51Cr release), rat LAK; conditions: for target cell lysis, effector cells pretreated (in words): LAK effectors pretreated; for lysis of treated targets by treated effectors (in words) / target cell lysis, target cells treated (in words): LAK effectors; for lysis of treated targets by treated effectors (in words): both treated; for target cell lysis, target cells treated (in words): target cells treated for 4 h prior to the cytotoxic reaction
Procedure: Rat spleen cells were used as effector cells either without activation (NK cells), or after treatment with human IL-2 (LAK), or after stimulation with the Nb2 rat lymphoma in mixed cultures (CTL). The Yac-1 murine lymphoma was used as a target for NK cells, the P815 mastocytoma for LAK cells and Nb2 cells for CTL. […] Target cells were labeled with ^51 Cr for 1 hr, then washed. The specific ^51 Cr release was determined after 4 hours of incubation at 37° C., 5% CO2 (target/effector 1:25).
Target cells: P815 (NKresistant murine mastocytoma)
Effectar cells: Spleen cells of Fischer rats were cultured in medium
supplemented with 500 U/ml riL2 for 6 days at 37° C. and 5%

[8] = tested on: tumor estrogen receptors; conditions: background statement; cited from earlier work

Compound	target cell lysis, effector cells pretreated (in words) [1]	lysis of treated targets by treated effectors (in words) [1]	target cell lysis, target cells treated (in words) [1]	target cell lysis, effector cells pretreated (in words) [2]	lysis of treated targets by treated effectors (in words) [2]	target cell lysis, target cells treated (in words) [2]	animals protected / survival [3]	partial regression [4]	cytotoxicity at 5 µM [5]	tumor free animals [6]	target cell lysis, effector cells pretreated (in words) [7]	lysis of treated targets by treated effectors (in words) [7]	target cell lysis, target cells treated (in words) [7]	inhibition of estrogen-induced growth [8]	cytotoxicity at 1 µM [5]
CN(C)CCOc1ccc(/C(=C(/CCCl)c2ccccc2)c2ccccc2)cc1 [TO, toremifene]	no such enhancing effect	lysed treated targets as efficiently as did nontreated effectors	enhanced target cell lysis in a dose dependent fashion	no such enhancing effect	lysed treated targets as efficiently as did nontreated effectors	enhanced target cell lysis in a dose dependent fashion	1 of 4	one	51%	one	no such enhancing effect	lysed treated targets as efficiently as did nontreated effectors	enhanced target cell lysis in a dose dependent fashion	–	–
CC/C(=C(\c1ccccc1)c1ccc(OCCN(C)C)cc1)c1ccccc1 [TX, tamoxifen]	no such enhancing effect	lysed treated targets as efficiently as did nontreated effectors	enhanced target cell lysis in a dose dependent fashion	no such enhancing effect	lysed treated targets as efficiently as did nontreated effectors	enhanced target cell lysis in a dose dependent fashion	killed all the animals	one	–	–	no such enhancing effect	lysed treated targets as efficiently as did nontreated effectors	enhanced target cell lysis in a dose dependent fashion	inhibit estrogen-induced growth by competitive antagonism of tumor estrogen receptors	52%
